According to ChEMBL document CHEMBL3046832, “Synthesis of some sulfonamides, disubstituted sulfonylureas or thioureas and some structurally related variants. A class of promising antitumor agents” (2007):

Tests used:
Assay type in all cases: functional
[1] = system: HCT-15; assay: Cytotoxicity against Homo sapiens (human) HCT15 cells after 48 hr by SRB assay; conditions: HCT-15, 48 h
[2] = system: UO-31; assay: Cytotoxicity against Homo sapiens (human) UO31 cells after 48 hr by SRB assay; conditions: UO-31, 48 h
[3] = system: NCI-H23; assay: Cytotoxicity against Homo sapiens (human) NCI-H23 cells after 48 hr by SRB assay; conditions: NCI-H23, 48 h
[4] = system: NCI-H460; assay: Cytotoxicity against Homo sapiens (human) NCI-H460 cells assessed as cellular growth after 48 hr by Alamar blue assay; parameters: concentration or dose not given beside the values
[5] = system: OVCAR-4; assay: Cytotoxicity against Homo sapiens (human) OVCAR4 cells after 48 hr by SRB assay; conditions: OVCAR-4, 48 h
[6] = system: SK-OV-3; assay: Cytotoxicity against Homo sapiens (human) SKOV3 cells after 48 hr by SRB assay; conditions: SK-OV-3, 48 h
[7] = system: SW-620; assay: Cytotoxicity against Homo sapiens (human) SW620 cells after 48 hr by SRB assay; conditions: SW-620, 48 h
[8] = system: OVCAR-5; assay: Cytotoxicity against Homo sapiens (human) OVCAR5 cells after 48 hr by SRB assay; conditions: OVCAR-5, 48 h
[9] = system: MCF7; assay: Cytotoxicity against Homo sapiens (human) MCF7 cells assessed as cellular growth after 48 hr by Alamar blue assay; parameters: concentration or dose not given beside the values
[10] = system: RPMI-8226; assay: Cytotoxicity against Homo sapiens (human) RPMI8226 cells after 48 hr by SRB assay; conditions: RPMI-8226, 48 h
[11] = Cytotoxicity against Homo sapiens (human) leukemia cells after 48 hr by SRB assay; conditions: Leukemia cell
[12] = system: A549; assay: Cytotoxicity against Homo sapiens (human) A549 cells after 48 hr by SRB assay; conditions: A549, 48 h
[13] = system: IGROV-1; assay: Cytotoxicity against Homo sapiens (human) IGROV1 cells after 48 hr by SRB assay; conditions: IGROV-1, 48 h
[14] = system: NCI-H522; assay: Cytotoxicity against Homo sapiens (human) NCI-H522 cells after 48 hr by SRB assay; conditions: NCI-H522, 48 h
[15] = Cytotoxicity against Homo sapiens (human) melanoma cells after 48 hr by SRB assay; conditions: Melanoma cell
[16] = system: SF-268; assay: Cytotoxicity against Homo sapiens (human) SF268 cells assessed as cellular growth after 48 hr by Alamar blue assay; parameters: concentration or dose not given beside the values
[17] = system: 786-0; assay: Cytotoxicity against Homo sapiens (human) 786-0 cells after 48 hr by SRB assay; conditions: 786-0, 48 h
[18] = Cytotoxicity against Homo sapiens (human) NCI-H322 cells after 48 hr by SRB assay; conditions: NCI-H322, 48 h
[19] = system: SF-539; assay: Cytotoxicity against Homo sapiens (human) SF539 cells after 48 hr by SRB assay; conditions: SF-539, 48 h
[20] = system: NCI-H460; assay: Cytotoxicity against Homo sapiens (human) NCI-H460 cells after 48 hr by SRB assay; conditions: NCI-H460, 48 h
[21] = Cytotoxicity against Homo sapiens (human) breast cancer cells after 48 hr by SRB assay; conditions: Cancer cell lines
[22] = system: UACC-257; assay: Cytotoxicity against Homo sapiens (human) UACC257 cells after 48 hr by SRB assay; conditions: UACC-257, 48 h
[23] = system: CAKI-1; assay: Cytotoxicity against Homo sapiens (human) Caki1 cells after 48 hr by SRB assay; conditions: CAKI-1, 48 h
[24] = system: KM12; assay: Cytotoxicity against Homo sapiens (human) KM12 cells after 48 hr by SRB assay; conditions: KM12, 48 h
[25] = Cytotoxicity against Homo sapiens (human) ovarian cancer cells after 48 hr by SRB assay; conditions: Cancer cell lines
[26] = system: MCF7; assay: Cytotoxicity against Homo sapiens (human) MCF7 cells after 48 hr by SRB assay; conditions: MCF7, 48 h
[27] = system: RXF 393; assay: Cytotoxicity against Homo sapiens (human) RXF393 cells after 48 hr by SRB assay; conditions: RXF 393, 48 h
[28] = system: BT-549; assay: Cytotoxicity against Homo sapiens (human) BT549 cells after 48 hr by SRB assay; conditions: BT-549, 48 h
[29] = system: T47D; assay: Cytotoxicity against Homo sapiens (human) T47D cells after 48 hr by SRB assay
[30] = system: OVCAR-3; assay: Cytotoxicity against Homo sapiens (human) OVCAR3 cells after 48 hr by SRB assay; conditions: OVCAR-3, 48 h
[31] = Cytotoxicity against Homo sapiens (human) renal cancer cells after 48 hr by SRB assay; conditions: Cancer cell lines
[32] = system: M14; assay: Cytotoxicity against Homo sapiens (human) M14 cells after 48 hr by SRB assay; conditions: M14, 48 h
[33] = system: U-251; assay: Cytotoxicity against Homo sapiens (human) U251 cells after 48 hr by SRB assay; conditions: U-251, 48 h
[34] = system: MDA-MB-231; assay: Cytotoxicity against Homo sapiens (human) MDA-MB-231 cells after 48 hr by SRB assay; conditions: MDA-MB-231, 48 h
[35] = system: Hs-578T; assay: Cytotoxicity against Homo sapiens (human) Hs578T cells after 48 hr by SRB assay
[36] = system: HCC 2998; assay: Cytotoxicity against Homo sapiens (human) HCC2998 cells after 48 hr by SRB assay; conditions: HCC 2998, 48 h
[37] = system: SK-MEL-2; assay: Cytotoxicity against Homo sapiens (human) SK-MEL-2 cells after 48 hr by SRB assay; conditions: SK-MEL-2, 48 h
[38] = Cytotoxicity against Homo sapiens (human) NCI-ADR-RES cells after 48 hr by SRB assay
[39] = system: HOP-62; assay: Cytotoxicity against Homo sapiens (human) HOP62 cells after 48 hr by SRB assay; conditions: HOP-62, 48 h
[40] = system: HT-29; assay: Cytotoxicity against Homo sapiens (human) HT-29 cells after 48 hr by SRB assay; conditions: HT-29, 48 h
[41] = Cytotoxicity against Homo sapiens (human) non-small cell lung cancer cells after 48 hr by SRB assay; conditions: Cancer cell lines
[42] = system: SF-295; assay: Cytotoxicity against Homo sapiens (human) SF295 cells after 48 hr by SRB assay; conditions: SF-295, 48 h
[43] = system: UACC-62; assay: Cytotoxicity against Homo sapiens (human) UACC62 cells after 48 hr by SRB assay; conditions: UACC-62, 48 h
[44] = system: SN12C; assay: Cytotoxicity against Homo sapiens (human) SN12C cells after 48 hr by SRB assay
[45] = system: EKVX; assay: Cytotoxicity against Homo sapiens (human) EKVX cells after 48 hr by SRB assay
[46] = system: SNB-75; assay: Cytotoxicity against Homo sapiens (human) SNB75 cells after 48 hr by SRB assay; conditions: SNB-75, 48 h
[47] = Cytotoxicity against Homo sapiens (human) prostate cancer cells after 48 hr by SRB assay; conditions: Cancer cell lines

SMILES: O=S(=O)(NC(=S)Nc1ccccc1)c1ccc(N2N=C3c4ccccc4CC3C2c2cccs2)cc1 (stereo not drawn)
- GI50 [1]: 22.6 µM
- GI50 [2]: 51.2 µM
- GI50 [3]: 17.6 µM
- Activity [4]: <=32%
- GI50 [5]: 69.8 µM
- GI50 [6]: 49.5 µM
- GI50 [7]: 30 µM
- GI50 [8]: 17.9 µM
- Activity [9]: <=32%
- GI50 [10]: 30.3 µM
- GI50 [11]: 27.4 µM
- TGI [11]: 85 µM
- GI50 [12]: 15.7 µM
- GI50 [13]: 65.3 µM
- GI50 [14]: 32.8 µM
- GI50 [15]: 32.2 µM
- TGI [15]: 68.4 µM
- Activity [16]: <=32%
- GI50 [17]: 19.7 µM
- GI50 [18]: 56.6 µM
- GI50 [19]: 22.7 µM
- GI50 [20]: 24.6 µM
- GI50 [21]: 30.8 µM
- TGI [21]: 57.3 µM
- GI50 [22]: 29.1 µM
- GI50 [23]: 18.5 µM
- GI50 [24]: 21.5 µM
- GI50 [25]: 43 µM
- TGI [25]: 81.3 µM
- GI50 [26]: 3.1 µM
- GI50 [27]: 78.1 µM
- GI50 [28]: 24.6 µM
- GI50 [29]: > 100 µM
- GI50 [30]: 17.2 µM
- GI50 [31]: 32.5 µM
- TGI [31]: 47 µM
- GI50 [32]: 22.7 µM
- GI50 [33]: 26.2 µM
- GI50 [34]: 24.8 µM
- GI50 [35]: 20.9 µM
- GI50 [36]: 13.9 µM
- GI50 [37]: 55.9 µM
- GI50 [38]: 19.3 µM
- GI50 [39]: 20.3 µM
- GI50 [40]: 36.2 µM
- GI50 [41]: 30.5 µM
- TGI [41]: 48.4 µM
- GI50 [42]: 18.9 µM
- GI50 [43]: 18.5 µM
- GI50 [44]: 21.4 µM
- GI50 [45]: 19.5 µM
- GI50 [46]: 71.9 µM
- GI50 [47]: 20.3 µM
- TGI [47]: 47.9 µM

SMILES: O=C1CS/C(=N\S(=O)(=O)c2ccc(N3N=C4c5ccccc5CC4C3c3cccs3)cc2)N1C(=O)c1ccccc1 (stereo not drawn)
- GI50 [1]: 56.3 µM
- GI50 [2]: > 100 µM
- GI50 [3]: 25.1 µM
- Activity [4]: <=32%
- GI50 [5]: > 100 µM
- GI50 [6]: > 100 µM
- GI50 [7]: 38.5 µM
- GI50 [8]: 32.2 µM
- Activity [9]: <=32%
- GI50 [10]: 34 µM
- GI50 [11]: 31.2 µM
- TGI [11]: 84.5 µM
- GI50 [12]: 70.5 µM
- GI50 [13]: 28.3 µM
- GI50 [14]: 60.1 µM
- GI50 [15]: 73.3 µM
- TGI [15]: > 100 µM
- Activity [16]: <=32%
- GI50 [17]: 48.8 µM
- GI50 [18]: 16.6 µM
- GI50 [19]: 44.6 µM
- GI50 [20]: > 100 µM
- GI50 [21]: 63 µM
- TGI [21]: > 100 µM
- GI50 [22]: > 100 µM
- GI50 [23]: 39 µM
- GI50 [24]: 21.4 µM
- GI50 [25]: 60.9 µM
- TGI [25]: > 100 µM
- GI50 [26]: > 100 µM
- GI50 [27]: 63.9 µM
- GI50 [28]: 33.5 µM
- GI50 [29]: > 100 µM
- GI50 [30]: 59.2 µM
- GI50 [31]: 59.4 µM
- TGI [31]: 99.1 µM
- GI50 [32]: 44.7 µM
- GI50 [33]: 36.3 µM
- GI50 [34]: 44.6 µM
- GI50 [35]: 25.3 µM
- GI50 [36]: 17.6 µM
- GI50 [37]: > 100 µM
- GI50 [38]: > 100 µM
- GI50 [39]: 32.9 µM
- GI50 [40]: 76 µM
- GI50 [41]: 49.3 µM
- TGI [41]: 85.9 µM
- GI50 [42]: 31.7 µM
- GI50 [43]: 23.2 µM
- GI50 [44]: 90.7 µM
- GI50 [45]: 42.4 µM
- GI50 [46]: > 100 µM
- GI50 [47]: 38.1 µM
- TGI [47]: > 100 µM
